The values that follow come from patent US8865705B2, “Benzimidazole respiratory syncytial virus inhibitors” (Janssen R&D Ireland, priority 2010, dated 2014).

Like-named read-outs stand apart in the source and are kept apart here.

The data set deals with rgRSV224 virus. In words: microbe, parasite or virus in culture. The data set is classed as cell-based, respiratory syncytial virus (RSV). The following applies: for EC50: read-out: WT activity EC50; for SI CC50/EC50: selectivity index, CC50 (HeLa cytotoxicity) over EC50 (rgRSV224). As for the experimental part: Black 96-well clear-bottom microtiter plates (Corning, Amsterdam, The Netherlands) were filled in duplicate using a customized robot system with serial 4-fold dilutions of compound in a final volume of 50 μl culture medium [RPMI medium without phenol red, 10% FBS, 0.04% gentamycin (50 mg/mL) and 0.5% DMSO]. Then, 100 μl of a HeLa cell suspension (5×10^4 cells/mL) in culture medium was added to each well followed by the addition of 50 μl rgRSV224 (MOI=0.02) virus in culture medium using a multidrop dispenser (Thermo Scientific, Erembodegem, Belgium). rgRSV224 virus is an engineered virus that includes an additional GFP gene (Hallak et al, 2000) and was in-licensed from the NIH (Bethesda, Md., USA). Medium, virus- and mock-infected controls were included in each test. Cells were incubated at 37° C. in a 5% CO2 atmosphere. Three days post-virus exposure, viral replication was quantified by measuring GFP expression in the cells by a MSM laser microscope (Tibotec, Beerse, Belgium). […] In parallel, compounds were incubated for three days in a set of white 96-well microtitier plates (Corning) and the cytotoxicity of compounds in HeLa cells was determined by measuring the ATP content of the cells using the ATPlite kit (PerkinElmer, Zaventem, Belgium) according to the manufacturer's instructions.

Setting [1] is: Table 2, rgRSV224 in HeLa cells, GFP expression three days post-virus exposure.
Where [2] appears, read: human respiratory syncytial virus, HeLa, 72 h.

For orientation: EC50 means the concentration at which the effect is half-maximal. As for `CC(C)CCn1c(Cn2c(=O)n(C3CC3)c3ccc(F)cc32)nc2cc(Cl)ccc21` [P28], the EC50 under setting [1] is 2.32 nM. The “SI CC50/EC50” value (Table 2) is listed as 14563.
For `O=c1n(Cc2nc3cc(Cl)ccc3n2CCCCF)c2cnccc2n1C1CC1` [P31], the EC50 under setting [1] came out at 0.19 nM. Where the note is “Table 2”, the “SI CC50/EC50” value was over 267110.
Taken in the same sequence, the figures for `CC(C)CCn1c(Cn2c(=O)n(C3CC3)c3ccc(F)cc32)nc2cc(Br)ccc21` [P32] were 2.53 nM and 25508.
For the compound `CC(C)(C)OC(=O)Cn1c(=O)n(Cc2nc3cc(Cl)ccc3n2CCCCF)c2cnccc21` [P33, tert-butyl (3-{[5-chloro-1-(4-fluorobutyl)-1H-benzimidazol-2-yl]methyl}-2-oxo-2,3-dihydro-1H-imidazo[4,5-c]pyridin-1-yl)acetate], for the setting “Table 2”, the “SI CC50/EC50” value is reported as over 49120. The EC50 under setting [2] is 1.9 nM.
Regarding `CS(=O)(=O)n1c(=O)n(Cc2nc3cc(Cl)ccc3n2CCCCF)c2cnccc21` [P34, 3-((5-chloro-1-(4-fluorobutyl)-1H-benzo[d]imidazol-2-yl)methyl)-1-(methylsulfonyl)-1H-imidazo[4,5-c]pyridin-2(3H)-one], the “SI CC50/EC50” value (Table 2) was >1 048 580. Besides, the concentration giving a half-maximal response (EC50) under setting [2] is 0.09 nM.
In the case of `CC(C)CCn1c(Cn2c(=O)n(C3CC3)c3ccccc32)nc2cc(Cl)ccc21` [P35], under setting [1], the half-maximal effective concentration (EC50) was found to be 2.63 nM. Also, the “SI CC50/EC50” value (Table 2) turned out to be 33466.
Taken in the same sequence, the figures for `O=C(CCCn1c(Cn2c(=O)n(C3CC3)c3ccncc32)nc2cc(Br)ccc21)NCCS(=O)(=O)n1ccnc1` [P38] were 0.22 nM and over 445390.
Taken in the same sequence, the figures for `O=c1n(Cc2nc3cc(Cl)ccc3n2CCCCF)c2cnccc2n1CC(F)F` [P40] were 0.048 nM and 2000000.
In the same order, the values of `O=c1n(Cc2ccc(F)cc2)c2ccncc2n1Cc1nc2cc(Cl)ccc2n1CCCCF` [P41] are 0.16 nM and 503466.
In the case of `O=c1n(Cc2nc3cc(Cl)ccc3n2CCCNc2ncccn2)c2cnccc2n1C1CC1` [P44], under setting [1], the EC50 was found to be 0.3 nM. Further, for the setting “Table 2”, the “SI CC50/EC50” value came out at 302162.
Consider `O=C(O)CCCn1c(Cn2c(=O)n(C3CC3)c3ccncc32)nc2cc(Cl)ccc21` [P45, 4-(5-chloro-2-((1-cyclopropyl-2-oxo-1H-imidazo[4,5-c]pyridin-3(2H)-yl)methyl)-1H-benzo[d]imidazol-1-yl)butanoic acid], for which the “SI CC50/EC50” value (Table 2) is “D. >19412”. Also, the EC50 under setting [2] stood at 5.15 nM.
In the case of `O=C1c2ccccc2C(=O)N1CCCCn1c(Cn2c(=O)n(C3CC3)c3ccncc32)nc2cc(Cl)ccc21` [P46], the EC50 under setting [1] was found to be 0.57 nM. In addition, the “SI CC50/EC50” value (Table 2) is recorded as over 44185.
Taken in the same sequence, the figures for `O=c1n(Cc2nc3cc(Cl)ccc3n2CCCCc2ccccn2)c2cnccc2n1C1CC1` [P47] were 0.76 nM and 84254.
On to `O=C(CCCn1c(Cn2c(=O)n(C3CC3)c3ccncc32)nc2cc(Br)ccc21)N1CCOCC1` [P48, 3-((5-bromo-1-(4-morpholino-4-oxobutyl)-1H-benzo[d]imidazol-2-yl)-methyl)-1-cyclopropyl-1H-imidazo[4,5-c]pyridin-2(3H)-one], for which the “SI CC50/EC50” value (Table 2) is given as over 102584. The EC50 under setting [2] was 0.97 nM.
With `O=C(CCCn1c(Cn2c(=O)n(C3CC3)c3ccncc32)nc2cc(Cl)ccc21)NS(=O)(=O)C1CC1` [P49, 4-(5-chloro-2-((1-cyclopropyl-2-oxo-1H-imidazo[4,5-c]pyridin-3 (2H)-yl)methyl)-1H-benzo[d]imidazol-1-yl)-N-(cyclopropylsulfonyl)butanamide], the “SI CC50/EC50” value (Table 2) is on record as over 55412. Also, under setting [2], the EC50 worked out at 1.8 nM.
As for `O=c1n(Cc2nc3cc(Cl)ccc3n2CCCc2ccccc2)c2cnccc2n1C1CC1` [P50], the EC50 under setting [1] was determined as 0.23 nM. The “SI CC50/EC50” value (Table 2) turned out to be 93799.
